Experiments:
[1] = test system: 'Concord' ortholog of 4g02123; test: MTase-Glo luminescence methyltransferase assay; type: biochemical, Vitis labrusca; conditions: 20 μM SAM, pH 8.0, 37 °C
Vv4g02123 = conditions: 20 μM SAM, pH 8.0, 37 °C; substrate inhibition fit
Vv4g02169 = molecular target: T1, Vv4g02169 (Vitis vinifera, UniProt D7SNV7); test: MTase-Glo luminescence methyltransferase assay; type: biochemical; conditions: 150 μM SAM, pH 8.0, 37 °C
T1 sequence (D7SNV7 1-364): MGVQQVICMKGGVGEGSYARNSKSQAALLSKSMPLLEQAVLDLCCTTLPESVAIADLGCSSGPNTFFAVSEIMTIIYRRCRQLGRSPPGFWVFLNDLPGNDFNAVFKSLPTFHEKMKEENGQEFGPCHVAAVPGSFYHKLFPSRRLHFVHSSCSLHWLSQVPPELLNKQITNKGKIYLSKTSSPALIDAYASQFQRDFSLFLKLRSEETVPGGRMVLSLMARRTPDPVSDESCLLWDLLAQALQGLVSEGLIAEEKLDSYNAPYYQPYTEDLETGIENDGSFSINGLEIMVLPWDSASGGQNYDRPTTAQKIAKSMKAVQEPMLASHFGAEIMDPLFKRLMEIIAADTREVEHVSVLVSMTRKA

**Q.** What does the source list for `CNc1ccccc1C(=O)O` [N-methyl AA]?
**A.** Km [1]: 120 µM; Km (Vv4g02123): 12 µM

**Q.** `Nc1ccccc1C(=O)O` [anthranilate] was tested. Which Km [1] did it give?
**A.** 47 µM

**Q.** What about the Km (Vv4g02169) of the same compound?
**A.** 160 µM

**Q.** With `O=C(O)c1ccccc1` [benzoic acid] as the compound, how does the Km [1] read?
**A.** 23 µM

**Q.** Which Km ([1]; substrate inhibition fit) does the source give for `O=C(O)c1ccccc1O` [salicylic acid] here?
**A.** 3.8 µM

Source: paper doi:10.1101/2024.06.10.598330v1 (biorxiv, 2024)
